In patent US11214594B2, “Antimicrobial peptide having synergistic antibacterial effect with antibiotics on multidrug resistant bacteria, and use thereof” (priority 2016, dated 2022):
Values after ≈ are worked out from the molar mass of the structure shown. Where a SMILES comes first, the peptide text is derived from it.

Experiments:
A. baumannii = test: MIC of antibiotic during combined treatment with antimicrobial peptide; format: cell-based, Acinetobacter baumannii; conditions: A. baumannii; combined with peptide at 64 μg/ml
Method: (§1) Thereafter, the MIC value of each mixed solution was determined by diluting the antibiotic solution with the MH medium, adding 50 μl of the diluted solution to each well, and performing an experiment even under a reversed condition.

MDREC 1229 = test: as above; format: cell-based, Escherichia coli
Method: Specifically, the strains described in [Table 2] were prepared and diluted with an MH medium such that the number of bacteria was 2×10^6 colony-forming units (CFUs) per 1 ml, 100 μl of the diluted strains was each aliquoted into a 96-well microtiter plate, and then 50 μl of a peptide solution diluted with the MH medium from the MIC value (solution diluted stepwise at 2: 1) was added to each well. Thereafter, the MIC value of each mixed solution was determined by diluting the antibiotic solution with the MH medium, adding 50 μl of the diluted solution to each well, and performing an experiment even under a reversed condition.

B. subtilis = test: microbe, parasite or virus in culture; format: cell-based, Bacillus subtilis
Method: (§2) For the antibacterial activity, a minimal inhibitory concentration (MIC) of a peptide in which fungus bodies were not split in an MH medium with sufficient nutrients was measured.
(§3) Specifically, the strains described in the following [Table 2] were purchased and diluted with an MH medium such that the number of bacteria was 2×10^6 colony-forming units (CFUs), 100 μl of each of the diluted strains was aliquoted into a 96-well microtiter plate, and then 100 μl of a peptide solution diluted with the MH medium (solution diluted stepwise at 2: 1) was added to each well.

P. aeruginosa = test: microbe, parasite or virus in culture; format: cell-based, Pseudomonas aeruginosa
Method: as §2, §3

E. coli = test: MIC of antibiotic during combined treatment with antimicrobial peptide; format: cell-based, Escherichia coli; conditions: for Antibiotic MIC, Erythromycin / Antibiotic MIC, Linezolid / Antibiotic MIC, Vancomycin: E. coli
Method: as §1

S. epidermidis = test: microbe, parasite or virus in culture; format: cell-based, Staphylococcus epidermidis
Method: as §2, §3

[1] = peptide treatment concentration 1 μg/ml
[2] = peptide treatment concentration 2 μg/ml
[3] = peptide treatment concentration 4 μg/ml
[4] = peptide treatment concentration 6 μg/ml
[5] = peptide treatment concentration 8 μg/ml
[6] = peptide treatment concentration 16 μg/ml
[7] = peptide treatment concentration 32 μg/ml
[8] = peptide treatment concentration 64 μg/ml

## CC[C@H](C)[C@H](NC(=O)[C@H](CCCCN)NC(=O)[C@H](Cc1c[nH]c2ccccc12)NC(=O)[C@@H](N)CCCNC(=N)N)C(=O)N[C@@H](Cc1ccccc1)C(=O)N[C@@H](CCCCN)C(=O)N[C@@H](CCCCN)C(=O)N[C@H](C(=O)N1CCC[C@H]1C(=O)N[C@@H](CCCCN)C(=O)N[C@@H](CC(C)C)C(=O)N[C@@H](CC(C)C)C(=O)N[C@@H](Cc1c[nH]cn1)C(=O)N[C@@H](CCC(=O)O)C(=O)N[C@@H](Cc1ccccc1)C(=O)N[C@@H](CCCCN)C(=O)N[C@@H](CCCCN)C(=O)N[C@@H](Cc1ccccc1)C(N)=O)[C@@H](C)CC [PapMA-12, RWK IFK KIP KLL HEF KKF-NH2] (H-RWKIFKKIPKLLHEFKKF-NH2; N-terminus assumed)
A. baumannii
  Antibiotic MIC, Linezolid: 0 µg/mL
  Antibiotic MIC, Vancomycin: 0 µg/mL
MDREC 1229; [1]
  Antibiotic MIC, Erythromycin: 128 µg/mL
  Antibiotic MIC, Linezolid: >128 µg/mL
  Antibiotic MIC, Vancomycin: >128 µg/mL
MDREC 1229; [2]
  Antibiotic MIC, Erythromycin: 32 µg/mL
  Antibiotic MIC, Linezolid: 128 µg/mL
  Antibiotic MIC, Vancomycin: >128 µg/mL
MDREC 1229; [3]
  Antibiotic MIC, Erythromycin: 8 µg/mL
  Antibiotic MIC, Linezolid: 32 µg/mL
  Antibiotic MIC, Vancomycin: 128 µg/mL
MDREC 1229; [4]
  Antibiotic MIC, Erythromycin: 4 µg/mL
  Antibiotic MIC, Linezolid: 16 µg/mL
  Antibiotic MIC, Vancomycin: 32 µg/mL
MDREC 1229; [5]
  Antibiotic MIC, Erythromycin: 1 µg/mL
  Antibiotic MIC, Linezolid: 16 µg/mL
  Antibiotic MIC, Vancomycin: 8 µg/mL
MDREC 1229; [6]
  Antibiotic MIC, Erythromycin: 0 µg/mL
  Antibiotic MIC, Linezolid: 0 µg/mL
  Antibiotic MIC, Vancomycin: 0 µg/mL
MDREC 1229; [7]
  Antibiotic MIC, Erythromycin: 0 µg/mL
  Antibiotic MIC, Linezolid: 0 µg/mL
  Antibiotic MIC, Vancomycin: 0 µg/mL
MDREC 1229; [8]
  Antibiotic MIC, Erythromycin: 0 µg/mL
  Antibiotic MIC, Linezolid: 0 µg/mL
  Antibiotic MIC, Vancomycin: 0 µg/mL
B. subtilis
  Minimal inhibitory concentration MIC: >128 µg/mL
P. aeruginosa
  Minimal inhibitory concentration MIC: 64 µg/mL (≈ 26.8 µM)
E. coli; E. coli and MDREC1229
  Synergistic effect of antibacterial activity with existing antibiotics compared with PapMA-1: higher level than the PapMA-1 peptide
E. coli; erythromycin combined with peptide at 1 μg/ml
  Antibiotic MIC, Erythromycin: 64 µg/mL
E. coli; erythromycin combined with peptide at 2 μg/ml
  Antibiotic MIC, Erythromycin: 32 µg/mL
E. coli; erythromycin combined with peptide at 4 μg/ml
  Antibiotic MIC, Erythromycin: 2 µg/mL
E. coli; erythromycin combined with peptide at 6 μg/ml
  Antibiotic MIC, Erythromycin: 1 µg/mL
E. coli; erythromycin combined with peptide at 8 μg/ml
  Antibiotic MIC, Erythromycin: 0 µg/mL
E. coli; erythromycin combined with peptide at 16 μg/ml
  Antibiotic MIC, Erythromycin: 0 µg/mL
E. coli; erythromycin combined with peptide at 32 μg/ml
  Antibiotic MIC, Erythromycin: 0 µg/mL
E. coli; erythromycin combined with peptide at 64 μg/ml
  Antibiotic MIC, Erythromycin: 0 µg/mL
E. coli; linezolid combined with peptide at 1 μg/ml
  Antibiotic MIC, Linezolid: >128 µg/mL
E. coli; linezolid combined with peptide at 2 μg/ml
  Antibiotic MIC, Linezolid: 128 µg/mL
E. coli; linezolid combined with peptide at 4 μg/ml
  Antibiotic MIC, Linezolid: 8 µg/mL
E. coli; linezolid combined with peptide at 6 μg/ml
  Antibiotic MIC, Linezolid: 2 µg/mL
E. coli; linezolid combined with peptide at 8 μg/ml
  Antibiotic MIC, Linezolid: 0 µg/mL
E. coli; linezolid combined with peptide at 16 μg/ml
  Antibiotic MIC, Linezolid: 0 µg/mL
E. coli; linezolid combined with peptide at 32 μg/ml
  Antibiotic MIC, Linezolid: 0 µg/mL
E. coli; linezolid combined with peptide at 64 μg/ml
  Antibiotic MIC, Linezolid: 0 µg/mL
E. coli; vancomycin combined with peptide at 1 μg/ml
  Antibiotic MIC, Vancomycin: >128 µg/mL
E. coli; vancomycin combined with peptide at 2 μg/ml
  Antibiotic MIC, Vancomycin: 128 µg/mL
E. coli; vancomycin combined with peptide at 4 μg/ml
  Antibiotic MIC, Vancomycin: 16 µg/mL
E. coli; vancomycin combined with peptide at 6 μg/ml
  Antibiotic MIC, Vancomycin: 8 µg/mL
E. coli; vancomycin combined with peptide at 8 μg/ml
  Antibiotic MIC, Vancomycin: 0 µg/mL
E. coli; vancomycin combined with peptide at 16 μg/ml
  Antibiotic MIC, Vancomycin: 0 µg/mL
E. coli; vancomycin combined with peptide at 32 μg/ml
  Antibiotic MIC, Vancomycin: 0 µg/mL
E. coli; vancomycin combined with peptide at 64 μg/ml
  Antibiotic MIC, Vancomycin: 0 µg/mL
S. epidermidis
  Minimal inhibitory concentration MIC: >128 µg/mL
